Experimental data as given in patent US4611056A, “Benzo[A]phenothiazines and hydro-derivatives” (Merck Frosst Canada, Inc., priority 1985, dated 1986).
In brackets after ≈: the same amount, converted by molar mass. Where a name gives a salt, the structure may show the parent alone. Values belong to the compound of their own block, whether it stands above or below them.

Experiments:
[1] = test system: duration of dyspnoea in asthmatic rats (egg albumin challenge); assay: Asthmatic Rat Assay; type: in vivo; details: for ED50 (Asthmatic Rat Assay): p.o.
asthmatic rat = assay: certain biological tests, amorphous versus crystalline material; type: in vivo
Description: Representative results comparing the two forms of the compound are shown in the accompanying Table IV (where doses are in mg/kg, p.o.).

[2] = NMR study of equilibration of conformational isomers in solution; type: physicochemical; details: upon dissolution at room temperature (DMF-d7)
Experimental: In particular, the methyl group of the acetyl unit appears as four sharp singlets, of approximately equal intensity, at 1.89, 1.91, 1.99 and 2.28 parts per million (ppm).
In another experiment, a sample of the crystalline compound was dissolved in DMF-d7, pre-cooled to -50° C., and the NMR spectrum taken quickly at -50° C. […] As the sample was warmed, these two signals coalesced to a singlet at about 30° C. (1.91 ppm); at about 80° C., a second singlet appeared (2.04 ppm), and at 170° C., these two singlets began to coalesce.
In another NMR study of the compound, five samples were dissolved in DMF-d7 at 25° C., and then stored at -78° C., after being held for 0, 5, 15, 30 and 60 minutes at 25° C.
As a result of the x-ray and NMR studies, it is concluded that there is a single conformational isomer of compound XVIII present in the crystalline form, and that this isomer equilibrated, upon dissolution at room temperature, over a period of approximately one hour, to a mixture of at least four observable conformational isomers which may possibly be represented as follows: [drawing 50]

[3] = test system: LTB4 formation in rat peritoneal PMN leukocytes; assay: Rat Peritoneal Polymorphonuclear (PMN) Leukocyte Assay (inhibition of LTB4 formation); type: cell-based; details: for IC50: Leukocyte, rat peritoneal PMN, 10 μM A-23187, 2 min preincubation at 37° C.
Experimental: Rats under ether anesthesia are injected (i.p.) with 8 ml of a suspension of sodium cascinate (6 grams in ca. 50 ml water). […] The rats are sacrificed (CO2) and the cells from the peritoneal cavity are recovered by lavage with 20 ml of buffer (Eagles MEM containing 30 mM HEPES adjusted to pH 7.4 with NaOH). The cells are pelleted (350×g, 5 min.), resuspended in buffer with vigorous shaking, filtered through lens paper, recentrifuged and finally suspended in buffer at a concentration of 10 cells/ml. A 500 μl aliquot of PMN suspension and test compound are preincubated for 2 minutes at 37° C., followed by the addition of 10 μM A-23187. The suspension is stirred for an additional 4 minutes then bioassayed for LTB4 content by adding an aliquot to a second 500 μl portion of the PMN at 37° C. The LTB4 produced in the first incubation causes aggregation of the second PMN, which is measured as a change in light transmission. […] The percentage inhibition of LTB4 formation is calculated from the ration of transmission change in the sample to the transmission change in the compound-free control.

[4] = test system: Platelet activating factor (PAF)-induced hyperalgesia in the rat paw; assay: PAF-Induced Hyperalgesia Assay; type: in vivo, rat (female Sprague-Dawley)
Experimental: Female Sprague-Dawley rats, 35-40 g were fasted overnight. Platelet activating factor, PAF, (L-lecithin B-acetyl O-alkyl) 1 μg/0.1 ml was given by subplantar injection in the rat paw. The compounds to be evaluated were homogenized in Aqueous Vehicle (0.9% benzyl alcohol, 0.5% Tween 80 and 0.4% methylcellulose) and administered orally in a volume of 0.1 ml, 30 minutes prior to PAF.
Animals were tested 1, 2, 3 and 4 hours after PAF administration. The vocalization threshold, defined as the pressure (mmHg) needed to evoke a squeak response, was recorded for both the injected and contralateral paw. No animal was subjected to pressure greater than 60 mmHg. Hyperalgesia is defined as a decrease in vocalization threshold as compared to a normal paw. Percent inhibition of hyperalgesia was calculated as the proportion of animals with vocalization thresholds greater than 200% of controls.

[5] = 0.5 mg/kg p.o., vehicle 0.4% Tween 80/0.5% Methocel
[6] = 1.5 mg/kg p.o., vehicle 0.4% Tween 80/0.5% Methocel
[7] = 2 mg/kg p.o., vehicle 0.4% Tween 80/0.5% Methocel
[8] = vehicle 0.4% Tween 80/0.5% Methocel
[9] = Rattus norvegicus, po, 5 mg/kg p.o., Table III, read-out: Asth. Rat % Inhibition
[10] = Rattus norvegicus, po, 1.5 mg/kg p.o., Table III, read-out: Asth. Rat % Inhibition

Compound: CC(=O)OC(C)OC(=O)N1c2ccccc2Sc2cc(O)c3ccccc3c21 (centres unmarked) [Compound XVIII, Amorphous (4 Conformers), 5-hydroxy-12-(1-acetoxyethoxycarbonyl)-12H-benzo[a]phenothiazine]
- % Inhibition (Asthmatic Rat Assay) [1, 5]: 48%
- % Inhibition (Asthmatic Rat Assay) ([1]; 0.5 mg/kg p.o., vehicle 1% Methocel): 36%
- % Inhibition (Asthmatic Rat Assay) [1, 6]: 52%
- % Inhibition (Asthmatic Rat Assay) ([1]; 1.5 mg/kg p.o., vehicle 1% Methocel): 59%
- % Inhibition (Asthmatic Rat Assay) [1, 7]: 57%
- ED50 (Asthmatic Rat Assay) [1, 8]: 1.0 mg/kg
- ED50 (Asthmatic Rat Assay) ([1]; vehicle 1% Methocel): 1.0 mg/kg
- biological activity over the crystalline material (asthmatic rat): advantageous biological activity over the crystalline material

Compound: CC(=O)OC(C)OC(=O)N1c2ccccc2Sc2cc(O)c3ccccc3c21 (centres unmarked) [Compound XVIII, Crystalline (1 Conformer)] [5-hydroxy-12-(1-acetoxyethoxycarbonyl)-12H-benzo[a]phenothiazine]
- period of equilibration of the single conformational isomer to a mixture of at least four conformational isomers [2]: approximately one hour
- % Inhibition (Asthmatic Rat Assay) [1, 5]: 19%
- % Inhibition (Asthmatic Rat Assay) [1, 6]: 49%
- % Inhibition (Asthmatic Rat Assay) [1, 7]: 61%
- % Inhibition (Asthmatic Rat Assay) ([1]; 2 mg/kg p.o., vehicle 1% Methocel): 28%
- % Inhibition (Asthmatic Rat Assay) ([1]; 5 mg/kg p.o., vehicle 0.4% Tween 80/0.5% Methocel): 81%
- ED50 (Asthmatic Rat Assay) [1, 8]: 1.5 mg/kg

Compound: CC(=O)Oc1cc2c(c3ccccc13)N(C(C)=O)c1ccccc1S2 [aromatic, Ac, Ac, S, 5-Acetoxy-12-acetyl-12H-benzo[a]phenothiazine]
- inhibition in vivo at 5 mg/kg [1, 9]: 47%

- IC50 [3]: 1000 to 5000 µg/mL (≈ 3250 to 16300 µM)
Compound: CC(=O)N1c2ccccc2Sc2cc(O)c3ccccc3c21 [aromatic, Ac, H, S, 12-acetyl-5-hydroxy-12H-benzo[a]phenothiazine]

- IC50 [3]: 5000 µg/mL (≈ 15600 µM)
Compound: COc1cc2c(c3ccccc13)N(C(C)=O)c1ccccc1S2 [aromatic, Ac, Me, S, 12-Acetyl-5-methoxy-12H-benzo[a]phenothiazine]

Compound: CC(=O)Oc1cc2c(c3ccccc13)Nc1ccccc1O2 [aromatic, H, Ac, O, 5-Acetoxy-12H-benzo[a]phenoxazine]
- inhibition in vivo at 5 mg/kg [1, 9]: 44%

Compound: CC(=O)Oc1cc2c(c3ccccc13)Nc1ccccc1S2 [aromatic, H, Ac, S, 5-acetoxy-12H-benzo[a]phenothiazine]
- ED50 ([1]; Rattus norvegicus, po, Table III, read-out: Asth. Rat ED50): 4 mg/kg
- ED50 ([4]; Rattus norvegicus, Platelet, po): 0.145 mg/kg
- IC50 [3]: 25 to 50 µg/mL (≈ 81.3 to 163 µM)

Compound: CC(=O)Oc1cc2c(c3ccccc13)Nc1ccccc1S2(=O)=O [aromatic, H, Ac, SO2, 5-Acetoxy-12H-benzo[a]phenothiazine-7,7-dioxide]
- inhibition in vivo at 5 mg/kg [1, 9]: 42%

Compound: CC(C)(C)C(=O)Oc1cc2c(c3ccccc13)Nc1ccccc1S2 [aromatic, H, COC(CH3)3, S, 5-Trimethylacetoxy-12H-benzo[a]phenothiazine]
- inhibition in vivo at 5 mg/kg [1, 9]: 54%

Compound: NCC(=O)Oc1cc2c(c3ccccc13)Nc1ccccc1S2 [aromatic, H, COCH2 NH2 .HCl, S, 5-aminoacetoxy-12H-benzo[a]phenothiazine-hydrochloride salt]
- inhibition in vivo at 1.5 mg/kg [1, 10]: 21%
- inhibition in vivo at 3 mg/kg ([1]; Rattus norvegicus, po, 3 mg/kg p.o., Table III, read-out: Asth. Rat % Inhibition): 44%

Compound: O=C(Oc1cc2c(c3ccccc13)Nc1ccccc1S2)c1ccccc1 [aromatic, H, COPh, S, 5-Benzoyloxy-12H-benzo[a]phenothiazine]
- inhibition in vivo at 5 mg/kg [1, 9]: 18%

- IC50 [3]: 20 to 100 µg/mL (≈ 75.4 to 377 µM)
Compound: Oc1cc2c(c3ccccc13)Nc1ccccc1S2 [aromatic, H, H, S, 5-hydroxy-12H-benzo[a]phenothiazine]
- inhibition in vivo at 1.5 mg/kg [1, 10]: 54%

Compound: O=S1(=O)c2ccccc2Nc2c1cc(O)c1ccccc21 [aromatic, H, H, SO2, 5-Hydroxy-12H-benzo[a]phenothiazine-7,7-dioxide]
- inhibition in vivo at 5 mg/kg [1, 9]: 67%

Compound: CCOP(=O)(OCC)Oc1cc2c(c3ccccc13)Nc1ccccc1S2 [aromatic, H, PO(OEt)2, S, Diethyl 12H-benzo[a]phenothiazin-5-yl phosphate]
- PMN IC50 [3]: 0.2 to 1 mg/mL

Compound: CC(=O)Oc1cc2c(c3ccccc13)N(C)c1ccccc1S2 [aromatic, Me, Ac, S, 5-acetoxy-12-methyl-12H-benzo[a]phenothiazine]
- PAF Induced Hyperalgesia % Inhibition ([4]; 1 mg/kg p.o.): 30-60%
- IC50 [3]: 50 µg/mL (≈ 156 µM)

- IC50 [3]: 5000 µg/mL (≈ 17000 µM)
Compound: COc1cc2c(c3ccccc13)N(C)c1ccccc1S2 [aromatic, Me, Me, S, 5-methoxy-12-methyl-12H-benzo[a]phenothiazine]
- PAF Induced Hyperalgesia % Inhibition ([4]; 1 mg/kg p.o.): 40%
- PAF Induced Hyperalgesia % Inhibition ([4]; 3 mg/kg p.o.): 80%

Compound: CC(=O)OC(C)OC(=O)N1c2ccccc2Sc2cc(O)c3ccccc3c21 (centres unmarked) [aromatic, drawing 52, H, S, 5-hydroxy-12-(1-acetoxyethoxycarbonyl)-12H-benzo[a]phenothiazine]
- inhibition in vivo at 1.5 mg/kg [1, 10]: 49%
- PAF Induced Hyperalgesia % Inhibition ([4]; 3 mg/kg p.o.): 60%
